Structures are written as SMILES.

The nature of the data set: Solubility test: amount of cyclohexanol (CHA) added until the varnish became clouded. Format: physicochemical. The conditions noted are these: varnish of arylsulfonic acid compound with PTA (0.5 molar equivalents; 1.0 for NSO-2) in 1 g DMI, solid content 7.0 wt %; amount of CHA when the varnish became clouded. How it is done:
The arylsulfonic acid compounds obtained in the above Examples 1 to 4 and Comparative Example 1 were subjected to a solubility test in solvent according to the following procedure.
The respective arylsulfonic acid compounds obtained in Examples 1 to 4 and 0.5 molar equivalents of PTA, relative to the compound, were dissolved in 1 g of 1,3-dimethyl-2-imidazolidinone (hereinafter abbreviated as DMI) so that the solid content was set at 7.0 wt %, thereby preparing varnishes.
Cyclohexanol (hereinafter abbreviated as CHA) was added to the resulting varnish to determine, as an index for solubility, an amount of CHA at the time when the varnish became clouded.
NSO-2 obtained in Comparative Example 1 and 1.0 molar equivalent of PTA, relative to NSO-2, were dissolved in 1 g of DMI so that the solid content was set at 7.0 wt %, thereby preparing a varnish.
CHA was added to the resulting varnish to determine, as an index for solubility, an amount of CHA at the time when the varnish became clouded.

Regarding `N#Cc1c(F)c(F)c(Oc2cc(S(=O)(=O)O)cc3cc(S(=O)(=O)O)ccc23)c(F)c1C#N` [Example 3FNS-1, Dicyanoperfluorotoluenesulfonic acid compound], the “Amount of dissolution in CHA” value worked out at 8.0 g. Turning to `N#Cc1c(F)c(F)c(Oc2cc(S(=O)(=O)O)cc3cc(S(=O)(=O)O)ccc23)c(F)c1F` [Example 4FNS-2, Cyanoperfluorotoluenesulfonic acid compound], the “Amount of dissolution in CHA” value is above 10 g. As for `O=S(=O)(O)c1ccc2c(Oc3c(F)c(F)c(C(F)(F)F)c(F)c3F)cc(S(=O)(=O)O)cc2c1` [Example 7FNS-1, Perfluorotoluene naphthalenesulfonic acid compound], the “Amount of dissolution in CHA” value is reported as above 10 g.

For the compound `O=S(=O)(O)c1ccc2c(Oc3c(F)c(F)c(C(F)(F)C(F)=C(F)F)c(F)c3F)cc(S(=O)(=O)O)cc2c1` [Example 9FNS-1, Perfluoroallylbenzene naphthalenesulfonic acid compound], the “Amount of dissolution in CHA” value was above 10 g.

`O=S(=O)(O)c1ccc2c(Oc3c(F)c(F)c(-c4c(F)c(F)c(Oc5cc(S(=O)(=O)O)cc6cc(S(=O)(=O)O)ccc56)c(F)c4F)c(F)c3F)cc(S(=O)(=O)O)cc2c1` [NSO-2, Naphthalenedisulfonic acid compound, reference compound]: the “Amount of dissolution in CHA” value is listed as 3.3 g.

For the origin of these results see patent US9082985B2, “Arylsulfonic acid compound and use thereof as electron-acceptor material” (NISSAN CHEMICAL INDUSTRIES, LTD., priority 2008, dated 2015).
